Measurements reported in US20250011881A1, “MYC-HSF1 DUAL AMPLIFICATION AS A BIOMARKER FOR CANCER TREATMENT” (The Trustees of Indiana University, priority 2023, published 2025).
Several values for one entry are separate records, joined by “and”; a condition that tells them apart may be missing. Identical values can stand only once. Counter-ions that a name gives are not always drawn.

These molecules were tested on ovarian cancer cells with (OVCAR8, OVCAR4) or without (OVSAHO, CAOV3) MYC-HSF1 amplification (assay: Epigenetic inhibitor drug screen, cell viability (Cell Titer Blue)). Details: not given.
Type: cell-based

Molecule	Non Amp - AMP (POC) 10 uM [POC]
O=C(O)CCNc1cc(N2CCc3ccccc3CC2)nc(-c2ccccn2)n1 [GSK J1]	1.38
O=C(Nc1cccc(Nc2nccc(Nc3cccc(C(F)(F)F)c3)n2)c1)C1CC1 [Aurora Kinase Inhibitor III]	−0.3226
NC(=O)c1cccc2cn(-c3ccc([C@@H]4CCCNC4)cc3)nc12 [MK-4827]	−0.7556
NC(=O)c1ncn([C@@H]2O[C@H](CO)[C@@H](O)[C@H]2O)c1N [AICAR]	11.27
CCCCCCCCCCCCCC(=O)O[C@@H]1[C@@H](C)[C@@]2(O)[C@@H](C=C(CO)C[C@]3(O)C(=O)C(C)=C[C@@H]23)[C@@H]2C(C)(C)[C@]12OC(C)=O [12-O-tetradecanoyl phorbol-13-acetate]	−2.545
Cc1ccc(-n2sc3ccccc3c2=O)cc1 [PBIT]	−46.19
CCC(=O)CCCCC[C@@H]1NC(=O)[C@H]2CCCCN2C(=O)[C@H]([C@@H](C)CC)NC(=O)[C@H](Cc2cn(OC)c3ccccc23)NC1=O [Apicidin]	45.97
O=C(NCC(=O)N1CCCC1)Nc1ccc2cnccc2c1 [SGC707]	4.518
N=C1NC(=O)/C(=C/c2ccc(O)cc2)S1 [Mirin]	4.24

Same assay, conditions: 10 uM, 48 hrs; average relative cell viability (vs 1% DMSO) of non-amplified cells (OVSAHO, CAOV3) minus that of MYC-HSF1 amplified cells (OVCAR8, OVCAR4); positive = greater response in amplified cells

Molecule	Non Amp - AMP (POC) 10 uM [POC]
c1nc2nc(Nc3ccc(N4CCOCC4)cc3)nc(NC3CCCCC3)c2[nH]1 [Reversine]	−6.769
CCCCCCCCCC(=O)N[C@@H](Cc1c[nH]c2ccccc12)C(=O)N[C@H](CC(N)=O)C(=O)N[C@@H](CC(=O)O)C(=O)N[C@@H]1C(=O)NCC(=O)N[C@@H](CCCN)C(=O)N[C@@H](CC(=O)O)C(=O)N[C@H](C)C(=O)N[C@@H](CC(=O)O)C(=O)NCC(=O)N[C@H](CO)C(=O)N[C@@H]([C@H](C)CC(=O)O)C(=O)N[C@@H](CC(=O)c2ccccc2N)C(=O)O[C@@H]1C [Daptomycin]	3.207
O=C([C@@H](Cc1cccc(C(F)(F)F)c1)NS(=O)(=O)c1cc(F)c2c(c1)CCNC2)N1CCCC1 [PFI-2]	−2.63
Cc1cc(Nc2cc(N3CCN(C)CC3)nc(/C=C/c3ccccc3)n2)n[nH]1 [ENMD-2076]	−22.8
AZD1152	−6.485
CPI-455	−8.682
O=C(Nn1nnc2ccccc21)c1ccc(Cl)cc1Cl [ITSA-1 (ITSA1)]	7.283
COCCCn1c(N)c(C(=O)NC2CCCC2)c2nc3ccccc3nc21 [CAY10591]	11.91
CO[C@@H]1[C@H](N(C)C(=O)c2ccccc2)C[C@H]2O[C@]1(C)n1c3ccccc3c3c4c(c5c6ccccc6n2c5c31)C(=O)NC4 [Midostaurin (PKC412), Midostaurin]	−9.891
Cc1cc(Nc2cc(N3CCN(C)CC3)nc(Sc3ccc(NC(=O)C4CC4)cc3)n2)[nH]n1 [VX-680 (MK-0457, Tozasertib), Tozasertib]	−20.25
O=C1NC(=O)/C(=C/c2cccc(C(F)(F)F)c2)S1 [SMI-4a]	−1.184
Cc1nn(C)cc1CN1CCC(c2ccc(C(=O)Nc3ccccc3N)cc2)CC1 [CXD101]	83.35
CC[C@@](C)(Nc1ccnc(-c2c[nH]c3ncccc23)n1)C(=O)NCC(F)(F)F [Decernotinib(VX-509), Decernotinib]	7.322
Oc1ccc(C=Cc2cc(O)cc(O)c2)cc1 [Resveratrol]	0.9482
CCCCC[C@H](O)CC(=O)CCc1ccc(O)c(OC)c1 [6-gingerol]	−6.674
O=c1[nH]c(=S)[nH]c(-c2ccccc2)c1Cc1c(O)ccc2ccccc12 [SIRT 1/2 Inhibitor IV]	18.95
NC(=O)c1cccc(NC(=O)/C=C/c2c[nH]c3ccccc23)c1 [RSC-133]	26.08
CC1(C)C(=O)N=C2C1=C(O)C(=O)c1ccccc12 [BVT 948]	22.87
O=C([O-])CCC(O)C(=O)[O-].[Na+].[Na+] (stereo not shown) [a-hydroxyglutaric Acid (sodium salt), a-hydroxyglutaric Acid]	3.785
O=c1[nH]cnc2ccccc12 [4-HQN]	−1.37
CC(C)(CNC(=O)c1cccc(-c2noc(C(F)(F)F)n2)c1)c1coc(-c2ccccc2)n1 [TMP-195]	0.5425
Cc1cn([C@H]2C[C@H](O)[C@@H](CO)O2)c(=O)nc1N [5-Methyl-2′-deoxycytidine]	−10.37

Molecule	Non Amp - AMP (POC) 10 uM [POC]
Cn1cc(-c2ccc(S(=O)(=O)n3ccc(/C=C/C(=O)Nc4ccccc4N)c3)cc2)cn1 [4SC-202]	15.57
N#Cc1ccc(-c2csc(NN=C3CCCC3)n2)cc1 [Remodelin]	13.34
COc1cc2c(NC3CCN(C)CC3)nc(N3CCCN(C)CC3)nc2cc1OCCOCCN(C)C [UNC0321 (trifluoroacetate salt)]	0.4275
O=[N+]([O-])c1ccc(Sc2cccc[n+]2[O-])c2nonc12 [NSC228155]	4.767
CN1CCN(c2cccc(Nc3nc4c(-c5ccc(S(C)(=O)=O)cc5)cccn4n3)c2)CC1 [CEP-33779]	15.1
O=C(CCl)Nc1ccc(S(=O)(=O)c2ccc(NC(=O)CCl)cc2)cc1 [TC-E 5003]	0.7453
CC(C(=O)Nc1cccc(/N=C/c2c(O)ccc3ccccc23)c1)c1ccccc1 (stereo not shown) [Salermide]	−13.88
COC(=O)/C=C/C(=O)N(O)CCCCNCc1ccc(COC(=O)Nc2cccc3ccccc23)cc1 [Methylstat (hydrate), Methylstat]	−5.079
COc1ccccc1C(=O)Nc1cc2c(cc1N1CCCCC1)n(C)c(=O)n2C [GSK 5959]	10.99
COc1ccc(-n2c(SCCCN3C(=O)c4cccc5cccc(c45)C3=O)nnc2-c2ccncc2)cc1 [WIKI4]	10.07
CN(C)c1ccc(C(=O)NCCCCCC(=O)NO)cc1 [CAY10398]	48.61
CS(=O)(=O)O.Cn1cc(C2=C(c3cn(CCCSC(=N)N)c4ccccc34)C(=O)NC2=O)c2ccccc21 [Ro 31-8220 Mesylate]	3.048
COc1cc2ncnc(Nc3ccc(O)cc3)c2cc1OC [JANEX-1]	−13.67
COc1ccc(-c2nc(N3CCOCC3)c3sc(CN(C)c4ncc(C(=O)NO)cn4)cc3n2)cn1 [CUDC-907]	8.159
C1=C/COCc2cc(ccc2OCCN2CCCC2)Nc2nccc(n2)-c2cccc(c2)COC/1 [Pacritinib (SB1518), Pacritinib]	−2.391
O=c1ccc2ccccc2o1 [Coumarin]	5.809
CCC(C)SSc1ncc[nH]1 (stereo not shown) [PX 12]	−7.518
O=C(Nc1nc2cccc(-c3ccc(CN4CCS(=O)(=O)CC4)cc3)n2n1)C1CC1 [GLPG0634]	15.53
O=C(O)c1ccccc1Nc1cccc(C(F)(F)F)c1 [Flufenamic acid]	−4.318
NC(=O)C1CCCc2c1[nH]c1ccc(Cl)cc21 (stereo not shown) [EX 527 (SEN0014196)]	−0.5892
COc1cc2c(NC3CCN(CC4CCCCC4)CC3)nc(N3CCCN(C(C)C)CC3)nc2cc1OCCCN1CCCCC1 [UNC 0631]	34.73
C=C1C[C@@]2(O)O[C@@]3(C[C@H]2C(C)C)[C@@H](C)CC[C@@H]13 [Curcumol]	−1.726

Same assay, conditions: 10 uM, 48 hrs; average relative cell viability (vs 1% DMSO) of non-amplified cells (OVSAHO, CAOV3) minus that of MYC-HSF1 amplified cells (OVCAR8, OVCAR4); positive = greater response in amplified cells; 10 µM

Molecule	Non Amp - AMP (POC) 10 uM
CC(C)(C)OC(=O)Nc1ccc(-c2cc(C(=O)NCCCCCCC(=O)NO)no2)cc1 [CAY10603]	43.89 POC and 29.05 POC
O=C(O)c1ccnc(C(=O)O)c1 [2,4-Pyridinedicarboxylic Acid]	−1.887 POC
CCCC(CCC)C(=O)O [Valproic acid]	−3.268 POC
Cc1[nH]c2ccccc2c1CCNCc1ccc(/C=C/C(=O)NO)cc1 [Panobinostat]	41.46 POC
COc1ccccc1S(=O)(=O)Nc1ccc2c(c1)CN(C)C(=O)N2 [PFI-1]	9.637 POC
CC(=O)Nc1ccc(C(=O)Nc2ccccc2N)cc1 [CI-994, Tacedinaline]	25.18 POC
CCCC(CCC)C(=O)O [Divalproex Sodium]	−6.451 POC
N#CC[C@H](C1CCCC1)n1cc(-c2ncnc3[nH]ccc23)cn1 [Ruxolitinib phosphate]	2.659 POC
O=Nc1ccc(O)c2ncccc12 [NSC 3852]	27.71 POC
Nc1ccccc1NC(=O)c1ccc(CNc2nccc(-c3cccnc3)n2)cc1 [Mocetinostat]	49.31 POC

Same assay, conditions: 10 uM, 48 hrs; average relative cell viability (vs 1% DMSO) of non-amplified cells (OVSAHO, CAOV3) minus that of MYC-HSF1 amplified cells (OVCAR8, OVCAR4); positive = greater response in amplified cells; listed as CI994 (Tacedinaline), 10 µM

Molecule	Non Amp - AMP (POC) 10 uM [POC]
CC(=O)Nc1ccc(C(=O)Nc2ccccc2N)cc1 [CI-994, Tacedinaline]	16.47

Same assay, conditions: 10 uM, 48 hrs; average relative cell viability (vs 1% DMSO) of non-amplified cells (OVSAHO, CAOV3) minus that of MYC-HSF1 amplified cells (OVCAR8, OVCAR4); positive = greater response in amplified cells; listed as Mocetinostat (MGCD0103, MG0103), 10 µM

Molecule	Non Amp - AMP (POC) 10 uM [POC]
Nc1ccccc1NC(=O)c1ccc(CNc2nccc(-c3cccnc3)n2)cc1 [Mocetinostat]	36.88

Same assay, conditions: 10 uM, 48 hrs; average relative cell viability (vs 1% DMSO) of non-amplified cells (OVSAHO, CAOV3) minus that of MYC-HSF1 amplified cells (OVCAR8, OVCAR4); positive = greater response in amplified cells; listed as PFI-1 (PF-6405761), 10 µM

Molecule	Non Amp - AMP (POC) 10 uM [POC]
COc1ccccc1S(=O)(=O)Nc1ccc2c(c1)CN(C)C(=O)N2 [PFI-1]	2.51

Same assay, conditions: 10 uM, 48 hrs; average relative cell viability (vs 1% DMSO) of non-amplified cells (OVSAHO, CAOV3) minus that of MYC-HSF1 amplified cells (OVCAR8, OVCAR4); positive = greater response in amplified cells; listed as Panobinostat (LBH589), 10 µM

Molecule	Non Amp - AMP (POC) 10 uM [POC]
Cc1[nH]c2ccccc2c1CCNCc1ccc(/C=C/C(=O)NO)cc1 [Panobinostat]	27.26
